Columns and labels:
Experiment in all cases: relative viability (nuclei count vs DMSO), 5 days (fraction); higher = more cells survive
[1] = compound: CNC(=O)c1ccccc1Sc1ccc2c(/C=C/c3ccccn3)n[nH]c2c1 [Axitinib] + CS(=O)(=O)CCNCc1ccc(-c2ccc3ncnc(Nc4ccc(OCc5cccc(F)c5)c(Cl)c4)c3c2)o1 [Lapatinib] (partner 2 µM)
Outline: (§1)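 Each reported value is a median over duplicate plates. It expresses relative viability: treated-well nuclei count divided by vehicle-well nuclei count. Lung cancer cell lines in 1536-well plates were dosed by pin tool a day after seeding, alone with one drug or with a fixed anchor-drug dose plus five library-drug doses (not always all listed) in √10 steps, and nuclei were counted after 5 days.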

[2] = compound: CC1=CC=C(C=C1)C(=O)CN2C3=C(CCCC3)SC2=N [Pifithrin_alpha] + CS(=O)(=O)CCNCc1ccc(-c2ccc3ncnc(Nc4ccc(OCc5cccc(F)c5)c(Cl)c4)c3c2)o1 [Lapatinib] (partner 2 µM)
Outline: as §1

[3] = compound: CNC(=O)c1ccccc1Sc1ccc2c(/C=C/c3ccccn3)n[nH]c2c1 [Axitinib] + CC(=O)Nc1cccc(-n2c(=O)n(C3CC3)c(=O)c3c(Nc4ccc(I)cc4F)n(C)c(=O)c(C)c32)c1 [Trametinib] (partner 0.02 µM)
Outline: as §1

[4] = compound: CNC(=O)c1ccccc1Sc1ccc2c(/C=C/c3ccccn3)n[nH]c2c1 [Axitinib] + Cc1nc(Nc2ncc(C(=O)Nc3c(C)cccc3Cl)s2)cc(N2CCN(CCO)CC2)n1 [Dasatinib] (partner 0.075 µM)
Outline: as §1

Cell Line	relative viability ([1]; first compound 0.005 µM)	relative viability ([1]; first compound 0.01581 µM)	relative viability ([1]; first compound 0.05 µM)	relative viability ([1]; first compound 0.1581 µM)	relative viability ([1]; first compound 0.5 µM)	relative viability ([2]; first compound 1 µM)	relative viability ([2]; first compound 3.162 µM)	relative viability ([2]; first compound 10 µM)	relative viability ([2]; first compound 31.62 µM)	relative viability ([2]; first compound 100 µM)	relative viability ([3]; first compound 0.005 µM)	relative viability ([3]; first compound 0.01581 µM)	relative viability ([3]; first compound 0.05 µM)	relative viability ([3]; first compound 0.1581 µM)	relative viability ([3]; first compound 0.5 µM)	relative viability ([4]; first compound 0.005 µM)	relative viability ([4]; first compound 0.01581 µM)	relative viability ([4]; first compound 0.05 µM)	relative viability ([4]; first compound 0.1581 µM)	relative viability ([4]; first compound 0.5 µM)
NCI-H661	0.608	0.522	0.359	0.481	0.534	0.673	0.488	0.446	0.508	0.486	0.594	0.5	0.578	0.556	0.583	1.01	0.737	0.843	0.83	0.927
NCI-H23	1.22	1.1	1.15	1.01	1.28	1.26	1.13	1	0.682	0.839	0.45	0.373	0.433	0.405	0.368	1.04	0.872	0.933	0.778	0.803
PC-14	0.294	0.288	0.402	0.278	0.332	0.337	0.32	0.265	0.271	0.15	0.763	0.789	0.879	0.759	1.04	0.247	0.227	0.297	0.257	0.314
H3255	0.272	0.241	0.244	0.263	0.239	0.13	0.208	0.267	0.244	0.192	0.573		0.551	0.486	0.558	0.351	0.341	0.359	0.38	0.373
NCI-H3122	1.03	0.977	1.04	1.04	1.13	1.11	1.04	1.05	0.837	1.01	0.217	0.212	0.255	0.217	0.267	0.881	0.819	0.895	0.724	0.735
NCI-H2009	0.92	1.05	0.9	1.02	0.9	0.368	0.906	0.847	0.457	0.813	0.279	0.252	0.304	0.245	0.254	0.303	0.35	0.355	0.301	0.413
HCC-827	0.209	0.169	0.138	0.186	0.212	0.197	0.207	0.235	0.197	0.198	0.572	0.519	0.552	0.548	0.518	0.302	0.209	0.356	0.398	0.274
LXF-289	0.899	0.831	0.921	0.869	0.888	0.912	0.979	0.85	0.749	0.837	0.703	0.644	0.683	0.684	0.701	0.242	0.208	0.285	0.304	0.271
NCI-H596	1.11	0.935	1.03	0.887	1.14	0.9	0.934	1.02	0.915	1.07	0.881	0.625	0.835	0.8	0.895	0.519	0.477	0.653	0.569	0.507
NCI-H727	1.05	0.952	0.71	0.867	0.953	0.884	0.903	0.695	0.555	0.565	0.375	0.369	0.402	0.377	0.414	0.403	0.371	0.436	0.465	0.347
NCI-H1993	0.952	0.971	0.841	0.735	0.731		0.761	0.73	0.764	0.777	0.433	0.373	0.535	0.503	0.506	0.609	0.708	0.735	0.712	0.52
NCI-H1437	0.851	0.743	0.91	0.733	0.926	0.946	0.809	0.898	0.507	0.377	0.634	0.488	0.557	0.554	0.519	0.396	0.388	0.448	0.388	0.442
NCI-H1792	0.921	0.834	1.01	0.876	0.653	0.68	1.24	0.83	0.508	0.878	0.618	0.363	0.499	0.494	0.498	0.763	0.749	0.618	0.761	0.838
NCI-H2023	0.752	0.924	1.03	0.775	0.759	0.274	0.737	0.638	0.291	0.589	0.634	0.483	0.489	0.439	0.57	0.537	0.525	0.701	0.515	0.621
LK-2	0.916		0.776	0.745	0.625	0.893	1.18	0.969		1.47	0.773	0.631	0.515	0.726	0.547	0.333	0.305	0.343	0.282	0.223
HOP-62	0.891	0.883	1.01	0.863	1.06	0.886	1.21	0.991	0.714	1.23	0.404	0.351	0.404	0.431	0.454	0.693	0.704	0.77	0.684	0.726

Cell Line	relative viability ([1]; first compound 0.005 µM)	relative viability ([1]; first compound 0.01581 µM)	relative viability ([1]; first compound 0.05 µM)	relative viability ([1]; first compound 0.1581 µM)	relative viability ([1]; first compound 0.5 µM)	relative viability ([2]; first compound 1 µM)	relative viability ([2]; first compound 3.162 µM)	relative viability ([2]; first compound 10 µM)	relative viability ([2]; first compound 31.62 µM)	relative viability ([2]; first compound 100 µM)	relative viability ([3]; first compound 0.005 µM)	relative viability ([3]; first compound 0.01581 µM)	relative viability ([3]; first compound 0.05 µM)	relative viability ([3]; first compound 0.1581 µM)	relative viability ([3]; first compound 0.5 µM)	relative viability ([4]; first compound 0.005 µM)	relative viability ([4]; first compound 0.01581 µM)	relative viability ([4]; first compound 0.05 µM)	relative viability ([4]; first compound 0.1581 µM)	relative viability ([4]; first compound 0.5 µM)
LC-2-ad	0.935	0.99	1.06	0.985	1.03	0.986	1.03	0.935	0.576	0.759	0.953	0.864	0.885	0.873	0.871	0.526	0.572	0.425	0.546	0.486
NCI-H838	1.29	0.853	1.11	1.01	1.03	1.08	0.908	0.822	0.562	0.615	0.565	0.486	0.584	0.52	0.572	0.288	0.352	0.342	0.282	0.262
NCI-H1944	0.86	0.802	0.907	0.827	0.68	0.755	0.67	0.517		0.598	0.562	0.388	0.451	0.39	0.434	0.213	0.223	0.214	0.202	0.188
CAL-12T	0.712	0.693	0.609	0.645	0.624	0.624	0.614	0.696	0.441	0.447	0.401	0.311	0.336	0.288	0.338	0.603	0.448	0.367	0.38	0.405
EPLC-272H	0.97	0.889	0.906	0.975	0.94		0.8	1.05	0.629	0.739	0.312	0.273	0.255	0.249	0.289	0.342	0.337	0.372	0.353	0.241
NCI-H2170	0.269	0.257	0.277	0.256	0.257	0.263	0.274	0.287	0.266	0.263	0.925	0.926	0.875	0.917	1.08	0.606	0.579	0.64	0.582	0.522
NCI-H1915	0.994	0.99	0.994	0.922	1	0.923	1.15	0.883		1.13	0.34	0.299	0.312	0.298	0.33	0.307	0.289	0.315	0.29	0.252
NCI-H2087	1	1.26	0.947	0.864	1.2	0.991	0.942	0.913	0.655	0.972	0.206	0.182	0.196	0.21	0.242	0.852	1.01	0.908	0.837	0.861
LCLC-97TM1	0.74	1.17	1.01	0.927	0.725		1.17	0.79		1.38	0.18	0.212	0.184	0.202	0.187	0.834	0.722	0.857	0.753	0.842
NCI-H1734	1.03	1.07	1.15	1.02	0.954	1.05	1.08	0.953	0.749	1.07	0.676	0.549	0.608	0.686	0.669	0.515	0.491	0.507	0.499	0.446
EKVX	0.178	0.226	0.222	0.216	0.183	0.167	0.16	0.139	0.181	0.14	0.286	0.29	0.347	0.323	0.406	0.602	0.31	0.334	0.435	0.507
201T	1.01	1.03	1.07	1.05	0.966	0.959	0.728	0.744	0.83	0.689	0.715	0.682	0.711	0.713	0.732	0.557	0.553	0.567	0.526	0.562
NCI-H2085	0.803	0.778	0.798	0.755	0.684	0.626	0.69	0.691	0.667	0.661	0.561	0.496	0.56	0.546	0.548	0.237	0.22	0.216	0.247	0.199
NCI-H1395	1.31	0.887	1.12	0.792	0.922		0.797	0.967	0.663	0.814	1	0.789	0.941	0.911	1.02	0.403	0.425	0.39	0.404	0.397
NCI-H2405	1.09	1.06	1.34	1.07	1.02		0.975	0.991	0.882	0.975	0.635	0.56	0.513	0.594	0.576	0.203	0.202	0.232	0.214	0.199
NCI-H1650	0.928	0.532	0.884	0.715	0.818	0.395	0.665	0.739	0.521	0.839	0.613	0.469	0.682	0.648	0.749	0.317	0.318	0.324	0.332	0.302

Reference: the supplement of paper PMC10307832
